From PMC11249626, “Fluorophore-Labeled Pyrrolones Targeting the Intracellular Allosteric Binding Site of the Chemokine Receptor CCR1” (ACS Pharmacology & Translational Science, 2024)
pKi: −log10 of the molar value. Read-outs that look alike come from different tables or passages of the source.

How the values were obtained:
[1] = molecular target: T1, CCR2 (Homo sapiens, UniProt P41597); assay: NanoBRET competition binding assay for CCR2 based on 7, as previously reported; settings: for inhibition at 20 µM: compound at 20 μM
T1 construct: host or cells: HEK293T, transient
T1 sequence (P41597 1-360 isoform P41597-2): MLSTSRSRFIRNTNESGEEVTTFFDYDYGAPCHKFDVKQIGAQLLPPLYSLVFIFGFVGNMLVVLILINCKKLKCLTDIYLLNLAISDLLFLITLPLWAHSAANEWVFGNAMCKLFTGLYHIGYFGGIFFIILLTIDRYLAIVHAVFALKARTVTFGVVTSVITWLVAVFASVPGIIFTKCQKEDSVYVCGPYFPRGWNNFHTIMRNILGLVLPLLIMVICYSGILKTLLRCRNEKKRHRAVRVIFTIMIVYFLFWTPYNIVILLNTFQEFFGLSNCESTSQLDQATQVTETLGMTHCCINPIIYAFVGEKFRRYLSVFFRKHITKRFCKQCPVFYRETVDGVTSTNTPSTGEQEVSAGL
Source text: With 6 (Figure 1), a first lead structure for intracellular CCR1 inhibition that features an approximately 20-fold CCR1 over CCR2 selectivity was previously discovered by Ortiz Zacarías et al.([33]) In order to discover new chemotypes for selective CCR1 over CCR2 inhibition, we aimed to apply our novel NanoBRET competition binding assay for CCR1 in combination with our recently published CCR2 competition binding assay based on 7.[47] In our first attempt, we screened a small in-house library enriched with intracellular GPCR ligands and structural analogues thereof. […] Additionally, we tested 23 for binding to the IABS of CCR9 and CXCR2 using our recently reported NanoBRET-based assay platform (Figure 6C).[44],[45] In the course of these studies, we detected no binding of 23 to CCR9 and CXCR2 up to a concentration of 20 μM. Since cell lineage-dependent effects have been observed for CCR1 antagonists,[59] we studied the CCR1 over CCR2 selectivity of 23 by using a previously reported radioligand binding assay with membrane preparations from osteosarcoma (U2OS) cells stably expressing human CCR1 or CCR2.[33] […] In agreement with these previous reports,[33] we observed a reduction in CCR1 over CCR2 selectivity when moving from membrane-based binding assays to cell-based functional assays. […] To investigate a potential signaling bias of 23, we tested the compound by means of a NanoBiT miniGi recruitment assay.[60] […] Thus, this indicated no strong signaling bias of 23 (Figures S9E and S10C). To elucidate the SAR of this new scaffold for selective CCR1 over CCR2 inhibition, we synthesized several analogues of 23 (24–40) and tested them by means of our NanoBRET competition binding assays (Schemes S2 and S3, Table 1, Figures 6F and S11). First, we aimed to examine the impact of the stereochemistry of 23 on CCR1 affinity. As for the structurally related pyrrolone 4, large differences in CCR2 affinity between the eutomer 4-[R] and the distomer 4-[S] were described.[61] […] Furthermore, we identified the 4-hydroxyphenethyl group at position 1 of the pyrrolone scaffold as highly important for CCR1 affinity and selectivity. Its presence seems to block CCR2 binding, also when combined with the structural features of the high-affinity CCR2 ligand 5, as exemplified by 24. Especially the 4-hydroxy group at this moiety is essential for CCR1 binding (see 25 and 26). […] In position 5 of the pyrrolone, several aromatic and aliphatic substituents were tolerated (see 31–35).

[2] = molecular target: T2, human CCR2b (Homo sapiens, UniProt P41597); assay: Membrane-based radioligand binding assay with [3H]-CCR2-RA-[R], U2OS membranes; settings: [3H]CCR2-RA-[R] 6 nM, 25 °C; for pKi: read-out: Ki, CCR2 (radioligand)
T2 sequence (P41597 1-360 isoform P41597-2): T1 sequence (P41597 1-360 isoform P41597-2)
Experimental: Membrane-based radioligand binding assays: Assays were performed according to the published protocol.13 Radioligand binding assays were performed in a 100 µ L reaction volume containing varying concentrations (final concentrations: 0.001 – 10 µM) of compounds 23 and 5, 6 nM [3H]-CCR2-RA-[R] (specific activity 60.6 Ci mmol-1, custom labeled by Vitrax in Placentia, CA, USA), and 15 µg membrane protein, all diluted in assay buffer (50mM Tris-HCl, 5 mM MgCl2, 0.1% CHAPS, at pH 7.4). Membranes were obtained from Tango™ CCR1-bla or Tango™ CCR2-bla osteosarcoma (U2OS) cells stably expressing the human CCR1 ([…]) or human CCR2b (U2OS-CCR2) cells (Invitrogen, Carlsbad, CA, USA). Total binding was determined in the absence of competing ligand, while non -specific binding was determined in the presence of 10 µM CCR2-RA-[R]. After membrane addition, reaction mixtures were incubated for 2 h at 25 °C while shaking. After 2 h, reactions were terminated by harvesting through a 96 -well GF/C filter plate using a PerkinElmer Filtermate harvester (PerkinElmer, Groningen, NL) and ice -cold wash buffer (50mM Tris-HCl, 5 mM MgCl2, 0.1% CHAPS, at pH 7.4). Afterwards, filter plate was dried, and radioactivity was measured in a P-E-2450 Microbeta2 scintillation plate counter (PerkinElmer, Groningen, NL) after addition of 25 µL of Microscint scintillation cocktail (PerkinElmer, Groningen, NL). […]
Technologies) for 20 min. […]
Finally, the top 5% of the identified hits were subsequently docked to a homology model of CCR1 (vide infra). After visual examination of the obtained binding modes 24 hit compounds were identified for further investigation .
Molecular docking: For the docking studies in the course of our virtual screening campaign, the CCR1 protein was […]
27, 28 CCR1 structure was optimized using the Quickprep and structure preparation wizard in MOE 24 using CHARMM27 forcefield. The protein was saved in mol2 format and loaded in GOLD.25, 26 The amino acids defining the IABS were listed in a text file to define the docking cavity. 50 GA runs were performed for docking CCR2-RA-[R] (4-[R]) and SN_12 (43), with the generated solutions clustered based on their RMSD with the threshold set to 0.75 Å using the complete linkage method. Docking runs were performed using ChemScore. Flexibility of amino acids Lys63ICL1, Arg1313.50, Leu2406.36 and Arg3078.49 was taken in consideration in the docking runs, with conformational sampling of their side chains being done by the rotamer libraries implemented in GOLD.25, 26 For the docking studies with our ligand-linker conjugates (Figure S1), molecular ligand structures were geometry optimized as neutral molecules by means of Avogadro (Version 1.2.0)29 using the Universal Force Field (UFF) and the Steepest Decent Algorithm until convergence (ΔE = 0).
CCR113 was used for docking. The compounds were docked by means of AutoDock Vina 1.1.2.30, 31 An exhaustiveness value of 8 and a search space of 22 x 22 x 22 Å³ was applied around the unliganded intracellular allosteric binding site of CCR1. Twenty docking poses were generated for each ligand and inspected manually and according to the docking score.

inhibition at 20 µM ([1]; read-out: % inh. of tracer binding, CCR2) [%]	inhibition at 20 µM ([1]; read-out: CCR2 inhibition class (n.i.)) [%]	pKi [2]	pKi ([1]; NanoBRET competition, tracer 7)	Ki ([2]; read-out: pKi, CCR2 (radioligand) (converted)) [nM]	Compound
-3	< 10	5.42			O=C(C1=C(O)C(=O)N(CCc2ccc(O)cc2)C1c1ccc(F)cc1)c1ccccc1 (racemic) [compound 23]
		8.05	7.75	7.94	CC(=O)C1=C(O)C(=O)N(c2ccc(Br)cc2F)C1C1CCCCC1 (stereo not drawn) [compound 5, reference compound]
